In patent publication US20020058637A1, “Methods of inhibiting tau-protein kinase I activity, inhibiting neuronal cell death and treating alzheimer's disease and tau-protein kinase I” (priority 1993, published 2002):
“Also recorded” adds a separate entry of the source.

Experiments:
[1] = tested on: hippocampus cells; test: Inhibiting action for the death of cranial nerve cells by AβP (living cell count, phase contrast microscope); format: cell-based, rat; conditions: for Numbers of Living Cells (%) After 6 hours / Numbers of Living Cells (%) After 21 hours: rat hippocampus cell culture, AβP 20 micromoles, oligonucleotide 1 micromole per 1 ml medium, 37° C., percentage to control
Source text: Numbers of many normal and healthy cells were counted by a phase contrast microscope as an index of the living cells after the treatment. Normal cells mean those which have morphologically flat circumference and many nerve cell projections while the degenerated cells were judged by checking the irregular shape, degeneration of the neural projections, etc. Numbers of the living cells were counted in a well. In the standard culture liquid, the cell numbers were not less than 400 per well. The result was confirmed by an immunohistochemical means.
The primary culture medium of hippocampus of rats was prepared in accordance with a method described in Brain Res., 126, 397-425 (1977). Thus, the hippocampus tissues were collected from embryo of the rats of 18 days after fertilization and digested in papain (protease) (10 U/ml) at 37° C. for 20 minutes. The resulting cells were added to a Dulbecco's modified Eagle's medium supplied with 5% bovine fetus serum, 5% horse serum, 10 micrograms/ml insulin, 0.1 mg/ml transferrin, 1 microgram/ml aprotinin, 1 mM sodium pyruvate and 84 micrograms/ml gentamycin. This was planted to a well for tissue culture covered with poly-L-lysine at the density of 2×10^5 cells/cm^2, cultured for three days and treated with 1 micromole of cytosine-beta-arabinofuranoside for 24 hours and the cells of the fifth day of the culture were used.
The culture medium of the hippocampus prepared by the above-mentioned method was subjected to the following treatments (b) to (d), numbers of the living cells with an elapse of time were counted and the result is given in Table
(a) Nontreated culture medium (control):
(b) TPKI-antisense (1 micromole) was added to 1 ml of the cell culture medium and, after five minutes, 20 micromoles of AβP was added followed by keeping at 37° C. for 24 hours.
(c) AβP (20 micromoles) was added to 1 ml of the cell cuture medium followed by keeping at 37° C. for 24 hours.
(d) TPKI-sense (1 micromole) was added to 1 ml of the cell culture medium and, after five minutes, 20 micromoles of AμP was added followed by keeping at 37° C. for 24 hours.

[2] = tested on: TPK-I; test: Phosphorylation of tau-protein by extract of treated hippocampus cells (phosphorylating activity of TPK-I); format: cell-based, rat; conditions: 24 hours
Experimental: Hippocampus cells were collected from the culture medium by washing with an ice-cooled phosphate buffer for three times. The cells were suspended in a buffer A (pH: 6.8) which contained 1 mM EGTA, 0.5 mM magnesium acetate and 20 mM 2-(N-morpholino)-ethanesulfonic acid containing a phosphatase inhibitor ([…]; manufactured by Seikagaku Kogyo) and a protease inhibitor (1 mM phenylmethylsulfonyl fluoride and each 1 micro gram/ml of leupeptin, pepstatin and aprotinin), homogenized and centrifuged at 14,000 rpm for one hour and the supernatant liquid was used for checking the phosphorylation.
The rat tau-protein expressed in E. coli BL21 by a gene recombination was purified by a method described in J. Biol. Chem., 267, 10897-10901 (1992).
The hippocampus extract (1 microliter) was added to a solution of the rat tau-protein (400 micrograms/ml) dissolved in a buffer A containing 1 mM [τ-^32P]ATP (10-20 Ci/mmole) and then 10 micromoles of okadaic acid was added to make the final volume 10 microliters. This was incubated at 37° C. for three hours and the reaction was stopped by adding a buffer for electrophoresis. After subjecting to a 10% polyacrylamide gel electrophoresis, the ^32p in the tau-protein was observed by a laser image analyzer (Fuji BAS 2000).

[3] = tested on: tau-protein; test: Phosphorylation of tau-protein by recombinant human TPK-I expressed in E. coli (phosphorylating method I); format: biochemical, bovine; conditions: room temperature, 20 hours
Experimental: tau-Protein extracted from bovine brain followed by purification (2 microliters; 1.5 mg/ml concentration) and 1 microliters of the above partially-purified enzyme solution were mixed. To the mixture was added a solution containing 2 mM adenosinetriphosphate and 2 mM magnesium acetate and [gamma-32P]adenosinetriphosphate so that the phosphorylation of tau-protein was conducted at room temperature for 20 hours whereby the amount of phosphoric acid incorporated in tau-protein was evaluated.

Row | Substance | Numbers of Living Cells (%) After 6 hours [1] | Numbers of Living Cells (%) After 21 hours [1] | cytotoxity by AβP observed with phase contrast microscope ([1]; TPKI-antisense and AβP on hippocampus cells, after 24 hours, magnifying power 400) | phosphorylating activity of TPK-I relative to the case in which only AβP was acted ([2]; TPKI-antisense and AβP versus only AβP) | Phosphorylating Activity of TPKI ([2]; hippocampus cell supernatant, AβP 20 micromoles, TPKI-antisense 1 micromole, rat tau-protein substrate) | phosphoric acid incorporated into one molecule of tau-protein [3]
1 | 5′-ATGTCGGGGCGACCGAGA-3′ (listed as DNA, chemistry not given here) [TPKI-Sense, tested together with AβP, reference compound] | 49.5% | 17.1% |  |  |  | 
2 | 5′-TCTCGGTCGCCCCGACAT-3′ (listed as DNA, chemistry not given here) [TPKI-Antisense, tested together with AβP] | 83.0% | 72.6% | little being similar to the controls; also recorded: little and similar to the case of the control | about one half; also recorded: about one-half | 31.6 unit/mg protein | 
3 | partially-purified TPK-I: recombinant human-originated tau-protein kinase I (Seq. ID No. 1) expressed in E. coli BL21 (DE3), partially purified |  |  |  |  |  | 1.2 mol
